Laboratory results taken from ChEMBL document CHEMBL1148076, “Cucurbitacins: differential cytotoxicity, dereplication and first isolation from Gonystylus keithii” (1994).

Experiments:
Assay type in all cases: functional
[1] = tested on: SR; assay: Growth inhibition of human SR cells
[2] = tested on: RXF 393; assay: Growth inhibition of human RXF393 cells
[3] = tested on: CAKI-1; assay: Growth inhibition of human Caki1 cells
[4] = tested on: NCI-H460; assay: Growth inhibition of human NCI-H460 cells
[5] = tested on: HT-29; assay: Growth inhibition of human HT-29 cells
[6] = tested on: SN12C; assay: Growth inhibition of human SN12C cells
[7] = tested on: A549; assay: Growth inhibition of human A549 cells
[8] = tested on: SK-MEL-2; assay: Growth inhibition of human SK-MEL-2 cells
[9] = tested on: UACC-257; assay: Growth inhibition of human UACC257 cells
[10] = Growth inhibition of human Hs 578T cells
[11] = tested on: UACC-62; assay: Growth inhibition of human UACC62 cells
[12] = tested on: NCI/ADR-RES; assay: Growth inhibition of human NCI/ADR-RES cells
[13] = tested on: SF-539; assay: Growth inhibition of human SF539 cells
[14] = Growth inhibition of human […] cells
[15] = tested on: NCI-H522; assay: Growth inhibition of human NCI-H522 cells
[16] = tested on: OVCAR-5; assay: Growth inhibition of human OVCAR5 cells
[17] = tested on: Malme-3M; assay: Growth inhibition of human MALME-3M cells
[18] = tested on: LOX IMVI; assay: Growth inhibition of human LOXIMVI cells
[19] = tested on: 786-0; assay: Growth inhibition of human 786-0 cells
[20] = tested on: SNB-75; assay: Growth inhibition of human SNB75 cells
[21] = tested on: MOLT-4; assay: Growth inhibition of human MOLT4 cells
[22] = tested on: HCT-116; assay: Growth inhibition of human HCT116 cells
[23] = tested on: HCT-15; assay: Growth inhibition of human HCT15 cells
[24] = tested on: KM12; assay: Growth inhibition of human KM12 cells
[25] = tested on: MCF7; assay: Growth inhibition of human MCF7 cells
[26] = tested on: BT-549; assay: Growth inhibition of human BT549 cells
[27] = tested on: SNB-19; assay: Growth inhibition of human SNB19 cells
[28] = tested on: M14; assay: Growth inhibition of human M14 cells
[29] = tested on: HOP-62; assay: Growth inhibition of human HOP62 cells
[30] = tested on: HOP-92; assay: Growth inhibition of human HOP92 cells
[31] = tested on: NCI-H322M; assay: Growth inhibition of human NCI-H322M cells
[32] = tested on: NCI-H23; assay: Growth inhibition of human NCI-H23 cells
[33] = tested on: OVCAR-4; assay: Growth inhibition of human OVCAR4 cells
[34] = tested on: OVCAR-3; assay: Growth inhibition of human OVCAR-3 cells
[35] = tested on: PC-3; assay: Growth inhibition of human PC3 cells
[36] = tested on: HL-60(TB); assay: Growth inhibition of human HL-60(TB) cells
[37] = tested on: MDA-MB-435; assay: Growth inhibition of human MDA-MB-435 cells
[38] = tested on: SF-268; assay: Growth inhibition of human SF268 cells
[39] = tested on: SF-295; assay: Growth inhibition of human SF295 cells
[40] = tested on: SK-MEL-28; assay: Growth inhibition of human SK-MEL-28 cells
[41] = tested on: A498; assay: Growth inhibition of human A498 cells
[42] = tested on: MDA-N; assay: Growth inhibition of human MDA-N cells
[43] = tested on: ACHN; assay: Growth inhibition of human ACHN cells
[44] = tested on: NCI-H226; assay: Growth inhibition of human NCI-H226 cells
[45] = tested on: K562; assay: Growth inhibition of human K562 cells
[46] = tested on: SK-OV-3; assay: Growth inhibition of human SKOV3 cells
[47] = tested on: U-251; assay: Growth inhibition of human U251 cells
[48] = tested on: COLO 205; assay: Growth inhibition of human COLO205 cells
[49] = tested on: OVCAR-8; assay: Growth inhibition of human OVCAR8 cells
[50] = tested on: EKVX; assay: Growth inhibition of human EKVX cells
[51] = tested on: TK-10; assay: Growth inhibition of human TK10 cells
[52] = tested on: IGROV-1; assay: Growth inhibition of human IGROV1 cells
[53] = tested on: T47D; assay: Growth inhibition of human T47D cells
[54] = tested on: MDA-MB-231; assay: Growth inhibition of human MDA-MB-231 cells
[55] = tested on: DU-145; assay: Growth inhibition of human DU145 cells
[56] = tested on: SW-620; assay: Growth inhibition of human SW620 cells
[57] = tested on: CCRF-CEM; assay: Growth inhibition of human CCRF-CEM cells
[58] = tested on: SK-MEL-5; assay: Growth inhibition of human SK-MEL-5 cells
[59] = tested on: HCC 2998; assay: Growth inhibition of human HCC2998 cells
[60] = tested on: UO-31; assay: Growth inhibition of human UO31 cells
[61] = read-out: pLC50 (the source's name) (converted)

## CC(=O)OC(C)(C)/C=C/C(=O)[C@](C)(O)[C@H]1[C@H](O)C[C@@]2(C)[C@@H]3CC=C4[C@@H](C=C(O)C(=O)C4(C)C)[C@]3(C)C(=O)C[C@]12C [CUCURBITACIN E]
[1]; [61]
  CC50: 34700 nM
[1]; read-out: pTGI (converted)
  TGI: 14100 nM
[2]; [61]
  CC50: 347 nM
[2]; read-out: pTGI (converted)
  TGI: 49 nM
[3]; [61]
  CC50: 79.4 nM
[3]; read-out: pTGI (converted)
  TGI: 20.9 nM
[4]; [61]
  CC50: 19100 nM
[4]; read-out: pTGI (converted)
  TGI: 2190 nM
[5]; [61]
  CC50: 10000 nM
[5]; read-out: pTGI (converted)
  TGI: 1820 nM
[6]; [61]
  CC50: 12900 nM
[6]; read-out: pTGI (converted)
  TGI: 1410 nM
[7]; [61]
  CC50: 33900 nM
[7]; read-out: pTGI (converted)
  TGI: 5010 nM
[8]; [61]
  CC50: 417 nM
[8]; read-out: pTGI (converted)
  TGI: 25.7 nM
[9]; [61]
  CC50: 11000 nM
[9]; read-out: pTGI (converted)
  TGI: 1200 nM
[10]; [61]
  CC50: 34700 nM
[10]; read-out: pTGI (converted)
  TGI: 89.1 nM
[11]; [61]
  CC50: 1910 nM
[11]; read-out: pTGI (converted)
  TGI: 347 nM
[12]; [61]
  CC50: 33900 nM
[12]; read-out: pTGI (converted)
  TGI: 8130 nM
[13]; [61]
  CC50: 331 nM
[13]; read-out: pTGI (converted)
  TGI: 18.2 nM
[14]; [61]
  CC50: 34700 nM
[14]; read-out: pTGI (converted)
  TGI: 8130 nM
[15]; [61]
  CC50: 3310 nM
[15]; read-out: pTGI (converted)
  TGI: 81.3 nM
[16]; [61]
  CC50: 18200 nM
[16]; read-out: pTGI
  TGI: 5250 nM
[17]; [61]
  CC50: 4370 nM
[17]; read-out: pTGI (converted)
  TGI: 79.4 nM
[18]; [61]
  CC50: 53.7 nM
[18]; read-out: pTGI (converted)
  TGI: 19.1 nM
[19]; [61]
  CC50: 4070 nM
[19]; read-out: pTGI (converted)
  TGI: 129 nM
[20]; [61]
  CC50: 17000 nM
[20]; read-out: pTGI (converted)
  TGI: 603 nM
[21]; [61]
  CC50: 34700 nM
[21]; read-out: pTGI (converted)
  TGI: 15100 nM
[22]; [61]
  CC50: 1820 nM
[22]; read-out: pTGI (converted)
  TGI: 372 nM
[23]; [61]
  CC50: 11000 nM
[23]; read-out: pTGI (converted)
  TGI: 537 nM
[24]; [61]
  CC50: 15100 nM
[24]; read-out: pTGI (converted)
  TGI: 4790 nM
[25]; [61]
  CC50: 8910 nM
[25]; read-out: pTGI (converted)
  TGI: 3240 nM
[26]; [61]
  CC50: 151 nM
[26]; read-out: pTGI (converted)
  TGI: 12.9 nM
[27]; [61]
  CC50: 1510 nM
[27]; read-out: pTGI (converted)
  TGI: 209 nM
[28]; [61]
  CC50: 6760 nM
[28]; read-out: pTGI (converted)
  TGI: 646 nM
[29]; [61]
  CC50: 6920 nM
[29]; read-out: pTGI (converted)
  TGI: 309 nM
[30]; [61]
  CC50: 191 nM
[30]; read-out: pTGI (converted)
  TGI: 63.1 nM
[31]; [61]
  CC50: 12000 nM
[31]; read-out: pTGI (converted)
  TGI: 3020 nM
[32]; [61]
  CC50: 10000 nM
[32]; read-out: pTGI (converted)
  TGI: 2190 nM
[33]; [61]
  CC50: 10000 nM
[33]; read-out: pTGI (converted)
  TGI: 417 nM
[34]; [61]
  CC50: 3720 nM
[34]; read-out: pTGI (converted)
  TGI: 83.2 nM
[35]; [61]
  CC50: 6760 nM
[35]; read-out: pTGI (converted)
  TGI: 257 nM
[36]; [61]
  CC50: 34700 nM
[36]; read-out: pTGI (converted)
  TGI: 6610 nM
[37]; [61]
  CC50: 22900 nM
[37]; read-out: pTGI (converted)
  TGI: 2090 nM
[38]; [61]
  CC50: 12900 nM
[38]; read-out: pTGI (converted)
  TGI: 100 nM
[39]; [61]
  CC50: 5620 nM
[39]; read-out: pTGI (converted)
  TGI: 81.3 nM
[40]; [61]
  CC50: 4170 nM
[40]; read-out: pTGI (converted)
  TGI: 77.6 nM
[41]; [61]
  CC50: 63.1 nM
[41]; read-out: pTGI (converted)
  TGI: 25.7 nM
[42]; [61]
  CC50: 14100 nM
[42]; read-out: pTGI (converted)
  TGI: 1910 nM
[43]; [61]
  CC50: 2510 nM
[43]; read-out: pTGI (converted)
  TGI: 141 nM
[44]; [61]
  CC50: 9770 nM
[44]; read-out: pTGI (converted)
  TGI: 91.2 nM
[45]; [61]
  CC50: 32400 nM
[45]; read-out: pTGI (converted)
  TGI: 15100 nM
[46]; [61]
  CC50: 12000 nM
[46]; read-out: pTGI (converted)
  TGI: 550 nM
[47]; [61]
  CC50: 3470 nM
[47]; read-out: pTGI (converted)
  TGI: 646 nM
[48]; [61]
  CC50: 17000 nM
[48]; read-out: pTGI (converted)
  TGI: 5750 nM
[49]; [61]
  CC50: 15100 nM
[49]; read-out: pTGI (converted)
  TGI: 2290 nM
[50]; [61]
  CC50: 15800 nM
[50]; read-out: pTGI (converted)
  TGI: 1100 nM
[51]; [61]
  CC50: 3310 nM
[51]; read-out: pTGI (converted)
  TGI: 129 nM
[52]; [61]
  CC50: 3890 nM
[52]; read-out: pTGI (converted)
  TGI: 19.9 nM
[53]; [61]
  CC50: 12900 nM
[53]; read-out: pTGI (converted)
  TGI: 2000 nM
[54]; [61]
  CC50: 891 nM
[54]; read-out: pTGI (converted)
  TGI: 53.7 nM
[55]; [61]
  CC50: 12900 nM
[55]; read-out: pTGI (converted)
  TGI: 2090 nM
[56]; [61]
  CC50: 19100 nM
[56]; read-out: pTGI (converted)
  TGI: 2090 nM
[57]; [61]
  CC50: 34700 nM
[57]; read-out: pTGI (converted)
  TGI: 6310 nM
[58]; [61]
  CC50: 759 nM
[58]; read-out: pTGI (converted)
  TGI: 120 nM
[59]; [61]
  CC50: 10000 nM
[59]; read-out: pTGI (converted)
  TGI: 912 nM
[60]; [61]
  CC50: 2290 nM
[60]; read-out: pTGI (converted)
  TGI: 77.6 nM
